Biological target: T1, TAFIa (Homo sapiens, UniProt Q96IY4)
T1 sequence (Q96IY4 115-423): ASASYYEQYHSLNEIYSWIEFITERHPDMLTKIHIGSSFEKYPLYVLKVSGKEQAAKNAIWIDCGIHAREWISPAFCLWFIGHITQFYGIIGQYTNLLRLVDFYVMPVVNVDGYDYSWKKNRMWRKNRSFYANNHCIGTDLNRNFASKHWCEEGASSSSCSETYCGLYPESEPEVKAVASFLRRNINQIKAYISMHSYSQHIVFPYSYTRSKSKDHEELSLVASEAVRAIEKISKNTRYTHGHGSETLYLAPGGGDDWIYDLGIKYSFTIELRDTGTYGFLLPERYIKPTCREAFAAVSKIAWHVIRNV
Experiment: Inhibition of TAFIa (hippuryl-Arg test)
Format: biochemical
Conditions: TAFIa 2 nM, hippuryl-arginine 5 mM, 45 minutes, relative to control containing the carrier; for inhibition at 0.01 µM: compound at 10 nM; for inhibition at 0.02 µM: compound at 20 nM
Experimental: Human TAFI (4 nM) is incubated with human thrombin (10 nM) and human thrombomodulin (5 nM) in the presence of calcium (10 mM). After incubation for 20 minutes, the activation reaction is stopped by addition of PPACK (1 μM final), an irreversible thrombin inhibitor.
The reactions take place in Hepes buffer (25 mM Hepes, 137 mM NaCl, 3.5 mM KCl)+0.1% bovine albumin, pH 7.4 at 28° C. and with stirring.
The test compound is added to the solution of TAFIa (2 nM) and incubated for 45 minutes in the presence of hippuryl-arginine (5 mM). The reaction is stopped by addition of hydrochloric acid (1M) neutralised subsequently with sodium hydroxide (1M), and then the mixture is buffered with disodium hydroxyphosphate (1M pH 7.4). […] The reaction mixture is stirred (vortex) and then centrifuged. The supernatant is transferred to a 96-well microplate, and the absorbance is measured using a spectrophotometer at 405 nm (Spectramax plus, Molecular Devices).
The OD value of a well containing the reagents without TAFI is subtracted from all the OD values measured. The percentage inhibition of TAFIa at a given concentration of the test compound is determined by means of the following formula: % inhibition=100−[(OD compound×100)/OD carrier]
The compounds are evaluated at 10 nM and 20 nM under the experimental conditions described above and the results are expressed as the percentage inhibition relative to a control containing the carrier in the absence of compound.

SMILES | inhibition at 0.01 µM [%] | inhibition at 0.02 µM [%]
NCCCCC1(C(=O)O)CN(Cc2ccccc2-c2cnc3ccccn23)CCP1(=O)O (centres unmarked) [Example 167, 3-(4-AMINOBUTYL)-4-HYDROXY-1-[(2-IMIDAZO[1,2-A]PYRIDIN-3-YLPHENYL)-METHYL]-4-OXO-1,4-AZAPHOSPHINANE-3-CARBOXYLIC ACID] | 61 | 67
COc1ccc(-c2cc(F)ccc2CN2CCP(=O)(O)[C@](CCCCN)(C(=O)O)C2)cc1OC [Example 179, (3S)-3-(4-AMINOBUTYL)-1-[[2-(3,4-DIMETHOXYPHENYL)-4-FLUOROPHENYL]-METHYL]-4-HYDROXY-4-OXO-1,4-AZAPHOSPHINANE-3-CARBOXYLIC ACID] | 74 | 83
Cc1ccc(-c2cc(F)ccc2CN2CCP(=O)(O)[C@](CCCCN)(C(=O)O)C2)cc1 [Example 180, (3S)-3-(4-AMINOBUTYL)-1-[[4-FLUORO-2-(4-METHYLPHENYL)PHENYL]-METHYL]-4-HYDROXY-4-OXO-1,4-AZAPHOSPHINANE-3-CARBOXYLIC ACID] | 54 | 73
COc1cccc(-c2cc(F)ccc2CN2CCP(=O)(O)[C@](CCCCN)(C(=O)O)C2)c1 [Example 185, (3S)-3-(4-AMINOBUTYL)-1-[[4-FLUORO-2-(3-METHOXYPHENYL)PHENYL]-METHYL]-4-HYDROXY-4-OXO-1,4-AZAPHOSPHINANE-3-CARBOXYLIC ACID] | 69 | 85
COc1ccc(-c2cc(F)ccc2CN2CCP(=O)(O)[C@](CCCCN)(C(=O)O)C2)cc1 [Example 187, (3S)-3-(4-AMINOBUTYL)-1-[[4-FLUORO-2-(4-METHOXYPHENYL)PHENYL]-METHYL]-4-HYDROXY-4-OXO-1,4-AZAPHOSPHINANE-3-CARBOXYLIC ACID] | 74 | 97
NCCCC[C@@]1(C(=O)O)CN(Cc2ccc(F)cc2-c2ccc(F)cc2)CCP1(=O)O [Example 189, (3S)-3-(4-AMINOBUTYL)-1-[[4-FLUORO-2-(4-FLUOROPHENYL)PHENYL]METHYL]-4-HYDROXY-4-OXO-1,4-AZAPHOSPHINANE-3-CARBOXYLIC ACID] | 71 | 78
NCCCC[C@@]1(C(=O)O)CN(Cc2ccc(F)cc2-c2cccnc2)CCP1(=O)O [Example 190, (3S)-3-(4-AMINOBUTYL)-1-[(4-FLUORO-2-PYRIDIN-3-YLPHENYL)METHYL]-4-HYDROXY-4-OXO-1,4-AZAPHOSPHINANE-3-CARBOXYLIC ACID] | 88 | 95
NCCCC[C@@]1(C(=O)O)CN(Cc2ccc(F)cc2-c2ccncc2)CCP1(=O)O [Example 192, (3S)-3-(4-AMINOBUTYL)-1-[(4-FLUORO-2-PYRIDIN-4-YLPHENYL)METHYL]-4-HYDROXY-4-OXO-1,4-AZAPHOSPHINANE-3-CARBOXYLIC ACID] | 77 | 91
NCCCC[C@@]1(C(=O)O)CN(Cc2ccc(Cl)cc2-c2ccc(Cl)cc2)CCP1(=O)O [Example 195, (3S)-3-(4-AMINOBUTYL)-1-[[4-CHLORO-2-(4-CHLOROPHENYL)PHENYL]METHYL]-4-HYDROXY-4-OXO-1,4-AZAPHOSPHINANE-3-CARBOXYLIC ACID] | 74 | 87
NCCCC[C@@]1(C(=O)O)CN(Cc2ccc(F)cc2-c2ccc(Cl)cc2)CCP1(=O)O [Example 198, (3S)-3-(4-AMINOBUTYL)-1-[[2-(4-CHLOROPHENYL)-4-FLUOROPHENYL]METHYL]-4-HYDROXY-4-OXO-1,4-AZAPHOSPHINANE-3-CARBOXYLIC ACID] | 72 | 91
NCCCC[C@@]1(C(=O)O)CN(Cc2ccccc2-c2cccc3ccccc23)CCP1(=O)O [Example 199, (3S)-3-(4-AMINOBUTYL)-4-HYDROXY-1-[(2-NAPHTHALEN-1-YLPHENYL)-METHYL]-4-OXO-1,4-AZAPHOSPHINANE-3-CARBOXYLIC ACID] | 54 | 73
COc1cc(-c2cc(F)ccc2CN2CCP(=O)(O)[C@](CCCCN)(C(=O)O)C2)ccc1F [Example 201, (3S)-3-(4-AMINOBUTYL)-1-[[4-FLUORO-2-(4-FLUORO-3-METHOXYPHENYL)-PHENYL]METHYL]-4-HYDROXY-4-OXO-1,4-AZAPHOSPHINANE-3-CARBOXYLIC ACID] | 69 | 84
NCCCC[C@@]1(C(=O)O)CN(Cc2ccccc2-c2cncc3ccccc23)CCP1(=O)O [Example 202, (3S)-3-(4-AMINOBUTYL)-4-HYDROXY-1-[(2-ISOQUINOLIN-4-YLPHENYL)-METHYL]-4-OXO-1,4-AZAPHOSPHINANE-3-CARBOXYLIC ACID] | 74 | 87

The next lines start with the values.

inhibition at 0.01 µM [%] | inhibition at 0.02 µM [%] | SMILES
43 | 51 | CC(C)c1ccccc1CN1CCP(=O)(O)C(CCCCN)(C(=O)O)C1 (centres unmarked) [Example 174, 3-(4-AMINOBUTYL)-4-HYDROXY-4-OXO-1-[(2-PROPAN-2-YLPHENYL)METHYL]-1,4-AZAPHOSPHINANE-3-CARBOXYLIC ACID]
55 | 77 | NCCCCC1(C(=O)O)CN(Cc2ccccc2-c2ccc(Cl)c(Cl)c2)CCP1(=O)O (centres unmarked) [Example 175, 3-(4-AMINOBUTYL)-1-[[2-(3,4-DICHLOROPHENYL)PHENYL]METHYL]-4-HYDROXY-4-OXO-1,4-AZAPHOSPHINANE-3-CARBOXYLIC ACID]
81 | 95 | NCCCC[C@@]1(C(=O)O)CN(Cc2ccccc2-c2cncnc2)CCP1(=O)O [Example 182, (3S)-3-(4-AMINOBUTYL)-4-HYDROXY-4-OXO-1-[(2-PYRIMIDIN-5-YLPHENYL)-METHYL]-1,4-AZAPHOSPHINANE-3-CARBOXYLIC ACID]
73 | 88 | NCCCC[C@@]1(C(=O)O)CN(Cc2ccccc2-c2cccs2)CCP1(=O)O [Example 183, (3S)-3-(4-AMINOBUTYL)-4-HYDROXY-4-OXO-1-[(2-THIOPHEN-2-YLPHENYL)-METHYL]-1,4-AZAPHOSPHINANE-3-CARBOXYLIC ACID]
67 | 95 | NCCCC[C@@]1(C(=O)O)CN(Cc2ccccc2-c2cccnc2)CCP1(=O)O [Example 184, (3S)-3-(4-AMINOBUTYL)-4-HYDROXY-4-OXO-1-[(2-PYRIDIN-3-YLPHENYL)-METHYL]-1,4-AZAPHOSPHINANE-3-CARBOXYLIC ACID]
64 | 86 | Cc1ccc(-c2ccccc2CN2CCP(=O)(O)[C@](CCCCN)(C(=O)O)C2)cc1 [Example 188, (3S)-3-(4-AMINOBUTYL)-4-HYDROXY-1-[[2-(4-METHYLPHENYL)PHENYL]-METHYL]-4-OXO-1,4-AZAPHOSPHINANE-3-CARBOXYLIC ACID]
66 | 83 | NCCCC[C@@]1(C(=O)O)CN(Cc2ccc(O)cc2-c2ccccc2)CCP1(=O)O [Example 191, (3S)-3-(4-AMINOBUTYL)-4-HYDROXY-1-[(4-HYDROXY-2-PHENYLPHENYL)-METHYL]-4-OXO-1,4-AZAPHOSPHINANE-3-CARBOXYLIC ACID]
64 | 80 | NCCCC[C@@]1(C(=O)O)CN(Cc2ccccc2-c2cccc(Cl)c2)CCP1(=O)O [Example 194, (3S)-3-(4-AMINOBUTYL)-1-[[2-(3-CHLOROPHENYL)PHENYL]METHYL]-4-HYDROXY-4-OXO-1,4-AZAPHOSPHINANE-3-CARBOXYLIC ACID]
77 | 91 | COc1ccc(-c2ccccc2CN2CCP(=O)(O)[C@](CCCCN)(C(=O)O)C2)cn1 [Example 196, (3S)-3-(4-AMINOBUTYL)-4-HYDROXY-1-[2-(6-METHOXYPYRIDIN-3-YL)BENZYL]-4-OXO-1,4-AZAPHOSPHINANE-3-CARBOXYLIC ACID]
60 | 78 | NCCCC[C@@]1(C(=O)O)CN(Cc2ccccc2-c2ccc(F)cc2)CCP1(=O)O [Example 197, (3S)-3-(4-AMINOBUTYL)-1-[[2-(4-FLUOROPHENYL)PHENYL]METHYL]-4-HYDROXY-4-OXO-1,4-AZAPHOSPHINANE-3-CARBOXYLIC ACID]
28 | 46 | CC(C)(C)c1ccccc1CN1CCP(=O)(O)[C@](CCCCN)(C(=O)O)C1 [Example 200, (3S)-3-(4-AMINOBUTYL)-1-[(2-TERT-BUTYLPHENYL)METHYL]-4-HYDROXY-4-OXO-1,4-AZAPHOSPHINANE-3-CARBOXYLIC ACID]
75 | 89 | COc1cc(-c2ccccc2CN2CCP(=O)(O)[C@](CCCCN)(C(=O)O)C2)ccn1 [Example 203, (3S)-3-(4-AMINOBUTYL)-4-HYDROXY-1-[[2-(2-METHOXYPYRIDIN-4-YL)PHENYL]METHYL]-4-OXO-1,4-AZAPHOSPHINANE-3-CARBOXYLIC ACID]
